Experimental findings from patent publication US5668161A, “Substituted thiazoles for the treatment of inflammation” (G.D. Searle & Co., priority 1996, dated 1997) are described below.

Each structure is given as a SMILES string.

The target of one experiment is T1, murine COX-II (Mus musculus, UniProt Q05769).
T1 sequence (Q05769 18-604): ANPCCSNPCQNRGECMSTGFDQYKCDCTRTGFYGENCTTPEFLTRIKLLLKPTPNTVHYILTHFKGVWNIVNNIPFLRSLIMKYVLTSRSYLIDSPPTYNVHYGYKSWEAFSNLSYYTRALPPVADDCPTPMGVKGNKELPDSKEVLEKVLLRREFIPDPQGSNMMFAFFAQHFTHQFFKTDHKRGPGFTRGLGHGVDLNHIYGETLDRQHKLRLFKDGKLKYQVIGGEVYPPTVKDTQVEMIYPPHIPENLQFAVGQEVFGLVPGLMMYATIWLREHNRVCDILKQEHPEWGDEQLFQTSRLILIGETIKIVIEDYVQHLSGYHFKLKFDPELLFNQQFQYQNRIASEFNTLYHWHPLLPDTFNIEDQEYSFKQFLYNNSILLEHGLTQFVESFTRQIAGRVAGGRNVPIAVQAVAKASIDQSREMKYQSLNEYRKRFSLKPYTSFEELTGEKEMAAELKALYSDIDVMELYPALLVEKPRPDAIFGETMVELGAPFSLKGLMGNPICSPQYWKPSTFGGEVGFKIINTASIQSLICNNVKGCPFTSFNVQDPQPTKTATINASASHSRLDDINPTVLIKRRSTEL
Kind of experiment: biochemical.

A further experiment has as its system carrageenan foot edema. Kind of experiment: Rat Carrageenan Foot Pad Edema Test. The experiment is classed as in vivo, rat (Male Sprague-Dawley). The note with it: oral, 3 hours after carrageenan, read-out: RAT PAW EDEMA % Inhibition; for inhibition at 20 mg/kg: @ 20 mg/kg body weight. The method, then: Male Sprague-Dawley rats were selected in each group so that the average body weight was as close as possible. Rats were fasted with free access to water for over sixteen hours prior to the test. […] One hour later a subplantar injection of 0.1 mL of 1% solution of carrageenan/sterile 0.9% saline was administered and the volume of the injected foot was measured with a displacement plethysmometer connected to a pressure transducer with a digital indicator. Three hours after the injection of the carrageenan, the volume of the foot was again measured. […] Rat Carrageenan-induced Analgesia Test
(In general: Carrageenan injected into the paw causes an acute inflammation.)

The next experiment deals with T2, murine COX-I (Mus musculus, UniProt P22437).
T2 sequence (P22437 27-602): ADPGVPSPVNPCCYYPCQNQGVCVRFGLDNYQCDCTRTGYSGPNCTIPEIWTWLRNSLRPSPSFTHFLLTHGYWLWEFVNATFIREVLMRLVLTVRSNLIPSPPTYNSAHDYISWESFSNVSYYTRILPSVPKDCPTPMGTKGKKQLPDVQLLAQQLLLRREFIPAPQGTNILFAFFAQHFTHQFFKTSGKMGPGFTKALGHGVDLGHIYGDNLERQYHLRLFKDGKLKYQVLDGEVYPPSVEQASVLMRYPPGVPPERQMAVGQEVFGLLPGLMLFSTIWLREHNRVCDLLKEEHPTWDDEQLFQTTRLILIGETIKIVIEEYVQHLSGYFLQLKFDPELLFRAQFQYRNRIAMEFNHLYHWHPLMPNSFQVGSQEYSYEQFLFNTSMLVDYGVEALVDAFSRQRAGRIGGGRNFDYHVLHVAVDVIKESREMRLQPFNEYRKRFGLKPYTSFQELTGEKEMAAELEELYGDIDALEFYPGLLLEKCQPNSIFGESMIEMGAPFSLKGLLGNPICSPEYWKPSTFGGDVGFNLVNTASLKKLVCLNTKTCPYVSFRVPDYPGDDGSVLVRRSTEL
Kind of experiment: COX I activity in vitro, murine (PGE2 by ELISA). In general terms: ELISA stands for enzyme-linked immunosorbent assay.

One may read the IC50 as the concentration needed to halve the response being measured. Read a low IC50 as higher potency. The inhibition is the share of the control response that was lost under treatment. As to `CS(=O)(=O)c1ccc(-c2sc(-c3ccncc3)nc2-c2ccc(F)cc2)cc1` [Example 8, 4-(4-Fluorophenyl)-5-(4-methylsulfonylphenyl)-2-(4-pyridyl)thiazole], the IC50 is 200 nM against murine COX-II and over 100000 nM at murine COX-I. Further, the inhibition at 20 mg/kg with carrageenan foot edema stood at 12%.
Regarding `CS(=O)(=O)c1ccc(-c2sc(CS(=O)(=O)c3cccs3)nc2-c2ccc(F)cc2)cc1` [Example 13], the IC50 on murine COX-II is 1200 nM; against murine COX-I, over 30000 nM.
Turning to `CCOC(=O)c1nc(-c2ccc(F)cc2)c(-c2ccc(S(C)(=O)=O)cc2)s1` [Example 17, Ethyl [4-(4-fluorophenyl)-5-(4-methylsulfonylphenyl)-2-thiazolyl]carboxylate], the values for the 50% inhibitory concentration (IC50) on murine COX-II and on murine COX-I were 300 nM and over 10000 nM, respectively.
As to `CC(C)(C)c1nc(-c2ccc(F)cc2)c(-c2ccc(S(C)(=O)=O)cc2)s1` [Example 18, 2-(tert-Butyl)-4-(4-fluorophenyl)-5-(4-methylsulfonylphenyl)thiazole], the IC50 on murine COX-II is 150 nM; against murine COX-I it was 5400 nM.
Take `CS(=O)(=O)c1ccc(-c2sc(Cc3ccccc3)nc2-c2ccc(F)cc2)cc1` [Example 19, 2-Benzyl-4-(4-fluorophenyl)-5-(4-methylsulfonylphenyl)thiazole]: on murine COX-I, inhibition was half-maximal at 400 nM (IC50).
With `Cc1nc(-c2ccc(S(C)(=O)=O)cc2)c(-c2ccc(F)cc2)s1` [Example 20, 5-(4-Fluorophenyl)-4-(4-methylsulfonylphenyl)-2-methylthiazole], the IC50 was 100 nM on murine COX-II and over 10000 nM against murine COX-I. Moreover, the inhibition at 20 mg/kg in the experiment with carrageenan foot edema was 48%.
As for `CS(=O)(=O)c1ccc(-c2scnc2-c2ccc(F)cc2)cc1` [Example 22, 4-(4-Fluorophenyl)-5-(4-methylsulfonylphenyl)thiazole], the IC50 at murine COX-II is 11200 nM; against murine COX-I, over 100000 nM.
Turning to `CS(=O)(=O)c1ccc(-c2sc(-c3cccs3)nc2-c2ccc(F)cc2)cc1` [Example 24, 4-(4-Fluorophenyl)-5-(4-methylsulfonylphenyl)-2-(2-thienyl)thiazole], the half-maximal inhibitory concentration (IC50) on murine COX-II is under 100 nM; against murine COX-I, over 10000 nM. Further, in the experiment with carrageenan foot edema, the inhibition at 10 mg/kg worked out at 20%.
For the compound `CS(=O)(=O)c1ccc(-c2sc(-c3cccnc3)nc2-c2ccc(F)cc2)cc1` [Example 26, 4-(4-Fluorophenyl)-5-(4-methylsulfonylphenyl)-2-(3-pyridyl)thiazole], the half-maximal inhibitory concentration (IC50) against murine COX-I is over 100000 nM.
For the compound `CS(=O)(=O)c1ccc(-c2sc(CC#N)nc2-c2ccc(F)cc2)cc1` [Example 27, 2-(Cyanomethyl)-4-(4-fluorophenyl)-5-(4-methylsulfonylphenyl)thiazole], the IC50 against murine COX-II was 200 nM; against murine COX-I it was over 10000 nM.
With `Cc1nc(-c2ccc(F)cc2)c(-c2ccc(S(C)(=O)=O)cc2)s1` [Example 28, 4-(4-Fluorophenyl)-5-(4-methylsulfonylphenyl)-2-methylthiazole], the concentration for half-maximal inhibition (IC50) was under 100 nM at murine COX-II and over 10000 nM against murine COX-I.
As for `CS(=O)(=O)c1ccc(-c2sc(N3CCCCC3)nc2-c2ccc(F)cc2)cc1` [Example 30, 4-(4-Fluorophenyl)-5-(4-methylsulfonylphenyl)-2-(1-piperidinyl)thiazole], the IC50 came to 300 nM on murine COX-II and 900 nM against murine COX-I.
For the compound `CCCNc1nc(-c2ccc(F)cc2)c(-c2ccc(S(C)(=O)=O)cc2)s1` [Example 31, 4-(4-Fluorophenyl)-5-(4-methylsulfonylphenyl)-2-(1-propylamino)thiazole], the 50% inhibitory concentration (IC50) is 100 nM against murine COX-II and over 10000 nM at murine COX-I. For the same compound, the inhibition at 10 mg/kg in the experiment on carrageenan foot edema amounted to 27.5%.
As to `CS(=O)(=O)c1ccc(-c2sc(-c3ccccc3Cl)nc2-c2ccccc2F)cc1` [Example 35, 2-(2-Chlorophenyl)-4-(2-fluorophenyl)-5-(4-methylsulfonylphenyl)thiazole], the inhibition at 20 mg/kg in the experiment with carrageenan foot edema was found to be 16%. This compound also returned an IC50 at murine COX-I of over 100000 nM.
For `CS(=O)(=O)c1ccc(-c2sc(COc3cccc(Cl)c3)nc2-c2ccc(F)cc2)cc1` [Example 37, 2-((3-Chlorophenoxy)methyl)-4-(4-fluorophenyl)-5-(4-methylsulfonylphenyl)thiazole], the IC50 at murine COX-II was under 100 nM; against murine COX-I it was over 100000 nM. In addition, the inhibition at 20 mg/kg with carrageenan foot edema turned out to be 9%.
On to `Cc1nc(-c2nc(-c3ccc(F)cc3)c(-c3ccc(S(C)(=O)=O)cc3)s2)cs1` [Example 39, 4-(4-Fluorophenyl)-5-[4-(methylsulfonyl)phenyl]-2-(2-methyl-4-thiazolyl)thiazole], for which the IC50 was 300 nM on murine COX-II and over 10000 nM at murine COX-I. Moreover, in the experiment with carrageenan foot edema, the inhibition at 20 mg/kg came to 19%.
As for `CCc1nc(-c2ccc(F)cc2)c(-c2ccc(S(C)(=O)=O)cc2)s1` [Example 42, 2-Ethyl-4-(4-fluorophenyl)-5-(4-methylsulfonylphenyl)thiazole], the figures for the half-maximal inhibitory concentration (IC50) at murine COX-II and against murine COX-I were under 100 nM and 1900 nM, respectively.
As to `CS(=O)(=O)c1ccc(-c2sc(CCCc3ccccc3)nc2-c2ccc(F)cc2)cc1` [Example 43, 4-(4-Fluorophenyl)-5-(4-methylsulfonylphenyl)-2-(3-phenylpropyl)thiazole], the concentration for half-maximal inhibition (IC50) came to 1300 nM at murine COX-II and 100000 nM against murine COX-I.
Take `CS(=O)(=O)c1ccc(-c2sc(CCc3ccccc3)nc2-c2ccc(F)cc2)cc1` [Example 44, 4-(4-Fluorophenyl)-5-(4-methylsulfonylphenyl)-2-(2-phenylethyl)thiazole]: inhibition against murine COX-I was half-maximal at 1700 nM (IC50).
With `CS(=O)(=O)c1ccc(-c2sc(-c3ccccc3)nc2-c2ccc(F)cc2)cc1` [Example 45, 4-(4-Fluorophenyl)-5-(4-methylsulfonylphenyl)-2-phenylthiazole], the 50% inhibitory concentration (IC50) was under 100 nM against murine COX-II and over 100000 nM against murine COX-I. Further, the inhibition at 10 mg/kg in the experiment on carrageenan foot edema is 19%.
In the case of `CCCCCCNc1nc(-c2ccc(F)cc2)c(-c2ccc(S(C)(=O)=O)cc2)s1` [Example 46, 4-(4-Fluorophenyl)-2-n-hexylamino-5-(4-methylsulfonylphenyl)thiazole], the concentration for half-maximal inhibition (IC50) on murine COX-II is under 100 nM; against murine COX-I, 1400 nM. The inhibition at 10 mg/kg in the experiment with carrageenan foot edema was found to be 25%.
As to `CCCCNc1nc(-c2ccc(F)cc2)c(-c2ccc(S(C)(=O)=O)cc2)s1` [Example 47, 2-Butylamino-4-(4-fluorophenyl)-5-(4-methylsulfonylphenyl)thiazole], the figures for the IC50 at murine COX-II and against murine COX-I were under 100 nM and 1400 nM, respectively. In addition, the inhibition at 20 mg/kg in the experiment on carrageenan foot edema was determined as 12%.
Regarding `CNc1nc(-c2ccc(F)cc2)c(-c2ccc(S(C)(=O)=O)cc2)s1` [Example 48, 4-(4-Fluorophenyl)-5-(4-methylsulfonylphenyl)-2-methylaminothiazole], the IC50 at murine COX-II was 300 nM; against murine COX-I, over 10000 nM. Further, in the experiment with carrageenan foot edema, the inhibition at 10 mg/kg turned out to be 15%.
`COc1ccc(-c2nc(-c3ccc(F)cc3)c(-c3ccc(S(C)(=O)=O)cc3)s2)cc1` [Example 49, 4-(4-Fluorophenyl)-5-(4-methylsulfonylphenyl)-2-(4-methoxyphenyl)thiazole]: the values for the IC50 at murine COX-II and on murine COX-I were 300 nM and over 10000 nM, respectively. Further, in the experiment with carrageenan foot edema, the inhibition at 10 mg/kg came to 6%.
Consider `CS(=O)(=O)c1ccc(-c2sc(Nc3ccc(C#N)cc3)nc2-c2ccc(F)cc2)cc1` [Example 53, 2-(4-Cyanophenylamino)-4-(4-fluorophenyl)-5-(4-methylsulfonylphenyl)-thiazole], for which the half-maximal inhibitory concentration (IC50) against murine COX-II was determined as 900 nM; at murine COX-I it was 200 nM.
On to `CCOC(=O)c1cccc(Nc2nc(-c3ccc(F)cc3)c(-c3ccc(S(C)(=O)=O)cc3)s2)c1` [Example 54, Ethyl-[3-[4-(4-fluorophenyl)-5-(4-methylsulfonylphenyl)-2-thiazolyl]amino]benzoate], for which the figures for the IC50 against murine COX-II and against murine COX-I were 1300 nM and 1100 nM, respectively.
Take `CCOC(=O)c1ccc(Nc2nc(-c3ccc(F)cc3)c(-c3ccc(S(C)(=O)=O)cc3)s2)cc1` [Example 55, Ethyl [4-[4-(4-fluorophenyl)-5-(4-methylsulfonylphenyl)-2-thiazolyl]amino]benzoate]: the values for the 50% inhibitory concentration (IC50) against murine COX-II and against murine COX-I were 3500 nM and over 10000 nM, respectively.
